Experimental data as given in PMC4592245 (PLoS ONE, 2015).

How the values were obtained:
ICR mice = experiment: Electrocardiogram (EKG) measurements; format: in vivo, mouse;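 note: Non-invasive EKG recorded at several successive time points, with each individual signal then analysed by physiologic waveform analysis software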
Method: Non-invasive EKG recordings were made using the ECGenie system (Mouse Specifics) at several subsequent time points. […] Data acquisition was performed using the program LabChart 6 (AD Instruments). Individual EKG signals were then evaluated using e-MOUSE physiologic waveform analysis software (Mouse Specifics) as previously described [31].

[1] = system: MDA-MB-231-LM3-3 orthotopic breast tumors; experiment: Therapeutic efficacy in orthotopic TNBC mouse model; format: in vivo, nude mice
Method: To establish orthotopic breast tumors, 0.75 × 10^6 MDA-MB-231-LM3-3 cells were injected into one of the second mammary fat pads of nude mice (Charles River Laboratories, female, 6–7 weeks, n = 6/group). Phospho-bufalin was dissolved in PBS for tumor treatment. PBS was injected as the vehicle control. When tumors became palpable, generally 14 days after injection, mice were randomized into two groups. The treatment group was then injected with phospho-bufalin subcutaneously (0.75 mg/kg per dose, 3 doses per week) for 3 weeks while the control group received PBS. Tumor lengths and widths were measured three times per week. Tumor sizes were calculated by: (length × width × width)/2.

Ki–67 = experiment: Ki-67 immunohistochemistry of tumor tissue; format: in vivo, nude mice; details: 0.75 mg/kg 3 times per week
Method: The formalin-fixed, paraffin-embedded tissue was dried at 58°C for 1 hour in an oven, and de-paraffinized by soaking slides in xylene, ethanol, and finally distilled water. Antigen was retrieved by steaming slides in a target retrieval solution, 10 mM citrate buffer (pH 6.0), for 30 minutes. Endogenous peroxidases were blocked with a 3% of hydrogen peroxide solution in PBS buffer. The leftover hydrogen peroxide was removed with PBS rinse. […] To stain the SRC–3 antigen, anti-SRC–3 antibody (Mouse source, BD Biosciences Inc. Cat# 611104) was pre-diluted 1:400 in a normal serum blocking solution. To stain the Ki–67 antigen, anti-Ki–67 (Rabbit source, Cell Signaling Technology Inc. Cat#9027) was used in 1:10000 dilution. During the staining procedure, the sections were incubated with HRP-polymer conjugated secondary antibodies (Vector Laboratories, Cat#7401 for rabbit antibody, Cat#MP–2400 for mouse antibody). To visualize the immunostaining, the sections were incubated with a fresh DAB solution (Dako Inc. Cat# K3468) and monitored under a microscope. Once ideal signals were observed, the reaction was stopped by rinsing the slides with water. Nuclear counterstain was also performed by immersing slides in Mayer’s Hematoxylin and a bluing reagent.

SRC–3 [2] = biological target: T1, SRC–3 (Homo sapiens, UniProt Q9Y6Q9); experiment: Western blotting of SRC-3, dose response in LM3-3 cells; format: cell-based; parameters: endogenous in cells
heart muscle = experiment: H&E staining of heart tissues; details: 24 h after drug administration
[3] = Pharmacokinetic study of 3-phospho-bufalin
Method: Five quality control (QC) samples at 10 ng/mL, 20 ng/mL, 500 ng/mL, 4000 ng/mL and 8000 ng/mL of plasma were prepared independently of those used for the calibration curves. QC samples were prepared on the day of analysis in the same way as the calibration standards.
Standards, QC samples, and unknown samples were injected into LC-MS/MS for quantitative analysis. The pharmacokinetic parameters of p-Buf were analyzed using WinNonLin. The PK trace was fitted into a non-compartmental extravascular model.

SRC–3 [4] = biological target: T1, SRC–3; experiment: SRC-3 levels in tumor tissues (Western blotting, IHC); format: in vivo, nude mice; parameters: from tissue; host or cells: orthotopic MDA-MB-231-LM3-3 xenograft tumours from nude mice; details: 0.75 mg/kg 3 times per week
Method: Cell lysate was prepared by adding RIPA buffer (containing 10 mM Tris-Cl pH 8.0, 1 mM EDTA, 0.5 mM EGTA, 1% Triton X–100, 0.1% sodium deoxycholate, 0.1% SDS, 140 mM NaCl, and protease inhibitors) to cells kept on ice. After spinning samples at 16,000 rpm for 15 minutes at 4°C, insoluble materials in the collected cell lysate were precipitated and discarded. The total protein concentration was measured using a Bradford protein assay. An equivalent mass of each sample was loaded and electrophoretically separated by 10% SDS-PAGE. Then proteins on PAGE the gel were transferred to a PVDF membrane. Anti-SRC–3 (Cell Signaling Technology Co. Cat# 2126) and anti-actin (Cell Signaling Technology Co. Cat# 8457) were used to probe the membranes.
The formalin-fixed, paraffin-embedded tissue was dried at 58°C for 1 hour in an oven, and de-paraffinized by soaking slides in xylene, ethanol, and finally distilled water. Antigen was retrieved by steaming slides in a target retrieval solution, 10 mM citrate buffer (pH 6.0), for 30 minutes. Endogenous peroxidases were blocked with a 3% of hydrogen peroxide solution in PBS buffer. The leftover hydrogen peroxide was removed with PBS rinse. […] To visualize the immunostaining, the sections were incubated with a fresh DAB solution (Dako Inc. Cat# K3468) and monitored under a microscope. […]

HCC1143 = experiment: Cell cytotoxicity assay (MTT), HCC1143; format: cell-based; details: Homo sapiens, HCC1143, 72 h
Method: (§1) TNBC cells (5000 to 7000 cells per well) were seeded in 96-well plates in medium supplemented with 10% FBS. […] Cell viabilities relative to untreated control cells were plotted using Graphpad Prism.

SUM149PT = experiment: Cell cytotoxicity assay (MTT), SUM149PT; format: cell-based; details: 72 h
Method: as §1

SUM159PT = experiment: Cell cytotoxicity assay (MTT), SUM159PT; format: cell-based; details: 72 h
Method: as §1

MDA-MB–231 = experiment: Cell cytotoxicity assay (MTT), MDA-MB-231; format: cell-based; details: MDA-MB-231, 72 h
Method: as §1

MDA-MB-231-LM3-3 = experiment: Cell cytotoxicity assay (MTT), MDA-MB-231-LM3-3; format: cell-based; details: MDA-MB-231-LM3-3, 72 h
Method: as §1

[5] = system: mouse primary hepatocytes; experiment: Viability of primary hepatocytes; format: cell-based; details: concentrations of up to 10 μM
Method: The HCC1143 cell line was grown in RPMI–1640 medium, SUM149PT and SUM159PT cell lines were grown in F–12 medium, and MDA-MB–231 cells were grown in DMEM. All culture media were supplemented with 10% fetal bovine serum. All cell lines were grown in a humidified incubator containing 5% CO2 at 37°C. Primary hepatocytes were isolated from an adult male mouse (C57BL) by collagenase perfusion (0.8 mg/mL; Sigma–Aldrich, C5138) through the portal vein as described previously, and maintained in M199 medium with 10% FBS. The viability of freshly isolated hepatocytes was verified using Trypan blue staining.
as §1

LM3-3 cells [6] = experiment: Single cell motility assay; format: cell-based
Method: Microtiter 96-well plates pre-coated with collagen V were covered with beads provided by a Cell Motility HCS kit (Thermo Scientific Co. Cat# K0800011). 500 LM3-3 cells were seeded in each bead-coated well. […] The cell track areas (pixels) were counted using Image J. To attain statistical significance, more than 50 cell tracks in each sample were counted.

LM3-3 cells [7] = experiment: Gefitinib and bufalin co-treatment, cell viability; format: cell-based
cancer cells = details: selective toxicity towards cancer cells; cited from earlier work
SRC–3 [8] = biological target: T1, SRC–3; parameters: Cell lysate was prepared by adding RIPA buffer; endogenous in cells; host or cells: HCC1143, SUM149PT, SUM159PT, MDA-MB-231, MDA-MB-231-LM3-3; method as in PMID 22053001; details: cited from earlier work
[9] = 7.5 mg/kg i.p., + 10 min post-injection
[10] = 7.5 mg/kg i.p., - 5 min (before injection)
[11] = 11.25 mg/kg i.p., + 5 min post-injection
[12] = 11.25 mg/kg i.p., + 10 min post-injection
[13] = 11.25 mg/kg i.p., + 15 min post-injection
[14] = 11.25 mg/kg i.p., - 5 min (before injection)
[15] = female, ICR, mouse, plasma, ip, 0.5 mg/kg

T1 sequence (Q9Y6Q9 whole entry): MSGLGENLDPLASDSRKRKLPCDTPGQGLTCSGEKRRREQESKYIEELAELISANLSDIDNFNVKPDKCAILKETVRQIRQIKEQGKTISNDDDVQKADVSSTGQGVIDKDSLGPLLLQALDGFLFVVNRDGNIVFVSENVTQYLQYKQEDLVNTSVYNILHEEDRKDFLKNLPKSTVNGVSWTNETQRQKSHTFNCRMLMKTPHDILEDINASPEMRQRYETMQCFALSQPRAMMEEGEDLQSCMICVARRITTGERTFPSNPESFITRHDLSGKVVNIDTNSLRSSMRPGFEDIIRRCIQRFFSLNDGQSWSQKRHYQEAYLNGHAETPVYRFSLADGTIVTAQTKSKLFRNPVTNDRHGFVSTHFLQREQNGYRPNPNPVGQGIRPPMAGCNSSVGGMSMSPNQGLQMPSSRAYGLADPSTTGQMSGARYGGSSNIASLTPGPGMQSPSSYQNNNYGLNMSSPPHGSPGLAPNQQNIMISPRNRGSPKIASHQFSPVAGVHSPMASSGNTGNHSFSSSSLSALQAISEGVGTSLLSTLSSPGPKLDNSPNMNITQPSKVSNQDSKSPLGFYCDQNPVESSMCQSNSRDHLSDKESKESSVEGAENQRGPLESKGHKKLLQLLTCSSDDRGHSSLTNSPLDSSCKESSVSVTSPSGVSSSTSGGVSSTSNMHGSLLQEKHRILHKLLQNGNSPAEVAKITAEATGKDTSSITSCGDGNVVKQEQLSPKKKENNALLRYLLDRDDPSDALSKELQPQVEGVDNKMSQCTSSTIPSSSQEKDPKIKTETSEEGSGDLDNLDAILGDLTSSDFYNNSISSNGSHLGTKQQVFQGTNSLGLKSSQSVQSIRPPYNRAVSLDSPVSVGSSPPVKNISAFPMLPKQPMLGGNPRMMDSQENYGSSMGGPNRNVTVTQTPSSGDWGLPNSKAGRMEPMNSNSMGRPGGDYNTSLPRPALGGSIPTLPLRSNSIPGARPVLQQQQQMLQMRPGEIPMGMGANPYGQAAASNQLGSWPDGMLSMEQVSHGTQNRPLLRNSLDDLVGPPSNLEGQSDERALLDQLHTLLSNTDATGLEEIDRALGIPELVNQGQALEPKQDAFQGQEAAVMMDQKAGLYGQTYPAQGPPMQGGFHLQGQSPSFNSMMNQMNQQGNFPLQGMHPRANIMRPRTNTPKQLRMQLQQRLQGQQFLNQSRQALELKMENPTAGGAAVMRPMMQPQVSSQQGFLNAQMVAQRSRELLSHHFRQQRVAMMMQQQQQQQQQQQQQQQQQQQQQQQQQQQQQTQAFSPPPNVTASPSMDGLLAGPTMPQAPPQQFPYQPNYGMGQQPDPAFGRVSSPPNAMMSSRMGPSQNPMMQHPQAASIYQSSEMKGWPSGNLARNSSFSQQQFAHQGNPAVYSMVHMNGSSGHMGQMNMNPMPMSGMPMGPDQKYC

For C[C@]12CC[C@H](OP(=O)(O)O)C[C@H]1CC[C@@H]1[C@@H]2CC[C@]2(C)[C@@H](c3ccc(=O)oc3)CC[C@]12O [3-phospho-bufalin, 3-Phospho-bufalin], the “changes in EKG parameters” value (ICR mice; 7.5 mg/kg and 11.25 mg/kg i.p.) was “did not observe significant changes in EKG parameters”, the HR (ICR mice; [9]) was 788.7 ± 1.2 BPM and the QRS (ICR mice; [9]) was 11.0 ± 0.1 ms. For the same molecule, the QT (ICR mice; [9]) was 38.2 ± 0.9 ms, the QTc (ICR mice; [9]) was 43.8 ± 1.0 ms and the RR (ICR mice; [9]) was 76.1 ± 0.1 ms. The ST (ICR mice; [9]) was 27.6 ± 0.9 ms, the HR (ICR mice; [10]) was 754.7 ± 6.6 BPM and the QRS (ICR mice; [10]) was 10.6 ± 0.1 ms. For the same molecule, the QT (ICR mice; [10]) was 40.2 ± 0.6 ms, the QTc (ICR mice; [10]) was 45.0 ± 0.5 ms and the RR (ICR mice; [10]) was 79.6 ± 0.7 ms. For the same molecule, the ST (ICR mice; [10]) was 30.1 ± 0.7 ms, the HR (ICR mice; [11]) was 779.7 ± 1.5 BPM and the QRS (ICR mice; [11]) was 10.9 ± 0.1 ms. For the same molecule, the QT (ICR mice; [11]) was 37.1 ± 0.3 ms, the QTc (ICR mice; [11]) was 42.3 ± 0.4 ms and the RR (ICR mice; [11]) was 77.0 ± 0.1 ms. It also gave an ST (ICR mice; [11]) of 26.7 ± 0.4 ms, an HR (ICR mice; [12]) of 761.3 ± 7.5 BPM and a QRS (ICR mice; [12]) of 11.1 ± 0.2 ms. It also gave a QT (ICR mice; [12]) of 38.1 ± 0.6 ms, a QTc (ICR mice; [12]) of 43.0 ± 0.6 ms and an RR (ICR mice; [12]) of 78.8 ± 0.8 ms. The ST (ICR mice; [12]) was 26.6 ± 0.5 ms, the HR (ICR mice; [13]) was 755.0 ± 1.0 BPM and the QRS (ICR mice; [13]) was 11.5 ± 0.1 ms. It also gave a QT (ICR mice; [13]) of 39.1 ± 0.9 ms, a QTc (ICR mice; [13]) of 43.9 ± 0.9 ms and an RR (ICR mice; [13]) of 79.5 ± 0.1 ms. It also gave an ST (ICR mice; [13]) of 28.1 ± 0.8 ms, an HR (ICR mice; [14]) of 798.0 ± 12.8 BPM and a QRS (ICR mice; [14]) of 10.6 ± 0.3 ms. The QT (ICR mice; [14]) was 39.1 ± 2.4 ms, the QTc (ICR mice; [14]) was 45.1 ± 2.9 ms and the RR (ICR mice; [14]) was 75.8 ± 0.2 ms. For the same molecule, the ST (ICR mice; [14]) was 29.0 ± 2.2 ms, the “body weight versus control at the end of the experiment” value ([1]; 0.75 mg/kg 3 times per week) was “statistically the same body weight” and the “tumor growth (tumor volume)” value ([1]; 0.75 mg/kg, 3 times per week for 3 weeks, subcutaneously) was “significantly inhibit TNBC tumor growth”. The “tumor weight, PBS treated relative to treatment group” value ([1]; day 31, 0.75 mg/kg 3 times per week) was ~ 2.4 times, the “Ki-67 positive cells in tumor tissue (IHC)” value (Ki–67) was “dramatically fewer Ki–67 positive cells” and the “potency to inhibit SRC-3 levels compared with bufalin” value (SRC–3 [2]; LM3-3 cells, Western blotting) was “less potent than bufalin”. For the same molecule, the “downregulation of SRC-3 in LM3-3 cells (Western blotting)” value (SRC–3 [2]; dose response) was “can also inhibit SRC–3 expression levels”, the “damage to cardiomyocytes (histology)” value (heart muscle) was “little damage to cardiomyocytes” and the AUC(0-inf) [3, 15] was 0.046 ± 0.018 µM·h. The AUC(0-t) [3, 15] was 0.031 ± 0.018 µM·h, the Tmax [3, 15] was 15 min and the half-life [3, 15] was 44.5 ± 6.24 min. The “conversion to parent bufalin in vivo” value ([3]; free bufalin detected in plasma) was “can be converted to parent bufalin in vivo”, the “SRC-3 level in tumor tissue (IHC staining) versus PBS” value (SRC–3 [4]) was “significantly lower” and the “SRC-3 protein levels in tumor tissues (Western blotting) versus PBS” value (SRC–3 [4]) was “significantly lower”.
Work on C[C@]12CC[C@H](O)C[C@H]1CC[C@@H]1[C@@H]2CC[C@]2(C)[C@@H](c3ccc(=O)oc3)CC[C@]12O [bufalin] yielded an IC50 (HCC1143) of 71.8 nM, an IC50 (SUM149PT) of under 20 nM and an IC50 (SUM149PT; Homo sapiens) of 16.6 nM. The IC50 (SUM159PT) was under 20 nM, the IC50 (SUM159PT; Homo sapiens, SUM-159-PT) was 15.9 nM and the IC50 (MDA-MB–231; Homo sapiens) was 20 nM. For the same molecule, the IC50 (MDA-MB–231) was under 20 nM, the IC50 (MDA-MB-231-LM3-3; 72 h) was 16.6 nM and the IC50 (MDA-MB-231-LM3-3) was under 20 nM. For the same molecule, the “toxicity in mouse primary hepatocytes” value [5] was “did not cause any observable toxicity”, the “toxicity toward LM3-3 cells under motility assay conditions” value (LM3-3 cells [6]; 12 h) was “minimal toxicity” and the “motility of LM3-3 cells” value (LM3-3 cells [6]; increasing concentrations) was “decreased with increasing concentrations”. The “combination effect with gefitinib on LM3-3 cell viability” value (LM3-3 cells [7]; 5 or 10 nM bufalin with gefitinib) was “synergize with gefitinib”, the IC50 values (cancer cells) was “low nM range” and the “damage to cardiomyocytes (histology)” value (heart muscle) was “little damage to cardiomyocytes”. The “time post injection at which bufalin became undetectable” value ([3]; released bufalin after p-Buf 0.5 mg/kg i.p.) was 1 h.
For COc1cc2ncnc(Nc3ccc(F)c(Cl)c3)c2cc1OCCCN1CCOCC1 [gefitinib], the “toxicity in LM3-3 cells, gefitinib alone” value (LM3-3 cells [7]; concentrations up to 20 μM) was “minimal toxicity”.
In the case of Cc1cc2c(C(C)C)c(O)c(O)c(C=O)c2c(O)c1-c1c(C)cc2c(C(C)C)c(O)c(O)c(C=O)c2c1O [gossypol], the IC50 values (SRC–3 [8]) is listed as “micromolar”.
